Drawing on ChEMBL document CHEMBL3045506, “Spore Germination Self-Inhibitors from Plant Pathogenic Fungi” (1997), this text covers ED50 and Activity for ten compounds.

Common to all, as to assay type: functional
Assay [1] deals with Puccinia graminis f. sp. tritici. Put plainly: Antifungal activity against Puccinia graminis f. sp. tritici assessed as inhibition of uredospore germination after 48 hr by microscope-slide assay.
Another assay concerns Puccinia coronata. In words: Antifungal activity against Puccinia coronata assessed as inhibition of uredospore germination after 48 hr by microscope-slide assay.
For assay [2], the system named is Colletotrichum gloeosporioides. Put plainly: Antifungal activity against Colletotrichum gloeosporioides f. sp. jussiaea assessed as conidial germination at 30 ppm after 48 hr by microscopic analysis.
Assay [3] deals with Colletotrichum gloeosporioides. In words: Antifungal activity against Colletotrichum gloeosporioides f. sp. jussiaea assessed as conidial germination at 100 ppm after 48 hr by microscopic analysis.
In assay [4] the test system is Colletotrichum gloeosporioides. Put plainly: Antifungal activity against Colletotrichum gloeosporioides f. sp. jussiaea assessed as conidial germination at 10 ppm after 48 hr by microscopic analysis.
The subject of assay [5] is Colletotrichum gloeosporioides. Put plainly: Antifungal activity against Colletotrichum gloeosporioides f. sp. jussiaea assessed as conidial germination at 3 ppm after 48 hr by microscopic analysis.

The structures appear in SMILES notation. Converted amounts (≈) assume the structure as drawn.

Turning to `COC(=O)/C=C\c1ccc(O)c(OC)c1` [METHYL CIS-FERULATE], the ED50 amounted to 0.18 ng/mL (≈ 0.864 nM) in assay [1] and 5.57 ng/mL (≈ 26.8 nM) in the assay on Puccinia coronata.

Regarding `CCCCC[C@H]1CCCCC[C@H]2CC(=O)[C@@H](CCC(=O)O1)O2` [(+)-GLOEOSPORONE], the Activity was 81% in assay [2] and 44% in assay [3].

As for `CCCCC[C@H]1CCCCC[C@H]2CC(=O)[C@@H](CCC(=O)O1)O2.NN` [7-EPIGLOEOSPORONE], the results for the Activity in assay [2] and in assay [3] were 82% and 45%, respectively.

`CCCCC[C@@H]1CCCCC[C@@H]2CC(=O)[C@H](CCC(=O)O1)O2` [(-)-GLOEOSPORONE]: the values for the Activity in assay [2] and in assay [3] were 82% and 49%, respectively.

Regarding `COC(=O)C(=Cc1ccc(O)c(OC)c1)C(=O)OC`, the ED50 in assay [1] amounted to 0.27 ng/mL (≈ 1.01 nM); in the assay on Puccinia coronata it was 6.8 ng/mL (≈ 25.5 nM).

Turning to `C/C=C1\C(=O)Nc2ccccc21`, the Activity in assay [2] amounted to 0%; in assay [4], 0%; in assay [3], 0%; in assay [5], 68%.

As to `COC(=O)C(=Cc1ccc(OC)c(OC)c1)C(=O)OC` [METHYL 3,4-DIMETHOXYBENZALMALONATE], the figures for the ED50 (in assay [1]; in the assay on Puccinia coronata) were 4.16 ng/mL (≈ 14.8 nM) and 0.025 ng/mL (≈ 0.0892 nM), respectively.

As for `CCCCC[C@@H]1CCCCC[C@@H]2CC(=O)[C@H](CCC(=O)O1)O2.NN` [13-EPIGLOEOSPORONE], the Activity in assay [2] stood at 81%; in assay [3] it was 48%.

Turning to `C/C=C1/C(=O)Nc2ccccc21`, the Activity in assay [2] came to 0%; in assay [4], 0%; in assay [3], 0%; in assay [5], 40%.

Take `COC(=O)/C=C\c1ccc(OC)c(OC)c1` [METHYL CIS-3,4-DIMETHOXYCINNAMATE]: the ED50 in assay [1] was 3.68 ng/mL (≈ 16.6 nM); in the assay on Puccinia coronata it was 0.013 ng/mL (≈ 0.0585 nM).
